Reference: ChEMBL document CHEMBL1201862, “PubChem BioAssay data set” (2004)
The source made the active and inactive calls. Rule as the data show it, for most assays here: actives have a measured EC50 and inactives only a lower limit.

How the values were obtained:
[1] = viability of HCT116 lacking mutant beta-catenin – cell-based, human colon tumor, dose response (AID 1045); type: functional;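 also: HCT116 colon tumor cells with beta catenin knocked out; cells exposed to compound for 60 hours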
H4 = assay: Luminescence Cell-Based Dose Response HTS to Identify Activators of 5'UTR Stem-Loop Driven Prion Protein mRNA Translation in H4 Neuroglioblastoma Cells. [Related pubchem assays: 1829 (Project Summary), 1814 (Primary HTS)]; type: functional; settings: Homo sapiens
[2] = Luminescence Cell-Based Dose Response HTS to Identify Activators of Luciferase Translation or Activity in H4 […] Cells. [Related pubchem assays: 1829 (Project Summary), 1814 (Primary HTS)]; type: functional
[3] = Luminescence Cell-Based Dose Confirmation HTS to Identify Activators of 5'UTR Stem-Loop Driven Alpha-Synuclein mRNA Translation in H4 Neuroglioblastoma Cells. [Related pubchem assays: 1829 (Project Summary), 1814 (Primary HTS)]; type: functional
[4] = viability of PTEN-deleted HCT116 cells – cell-based, HCT116 PTEN knockout, dose response (AID 1047); type: functional;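 also: HCT116 colon tumor cells with PTEN knocked out; cells exposed to compound for 60 hours before readout; potency for loss of cell viability measured by luminescence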
[5] = Luminescence Cell-Based Dose Retest to Confirm Inhibitors of Cancer Stem Cells. [Related pubchem assays (depositor defined):AID2717, AID2721]; type: functional; settings: Homo sapiens
[6] = microbe, parasite or virus in culture; type: functional; settings: Mycobacterium tuberculosis
INS1 = assay: INS-1E survival protection against cytokine death – cell-based, luminescence, retest, dose response (AID 449756); type: functional; settings: Rattus norvegicus;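 also: cell death triggered by IL-1 beta plus TNF-alpha plus IFN-gamma mixture; protective hits raise ATP signal compared with cytokine alone wells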
[7] = alpha-synuclein stem-loop luciferase translation blockers – H4 neuroglioma cells, luminescence, confirmation (AID 1988); type: functional, cell-based
[8] = luciferase reporter signal suppression in cells – H4 neuroglioma cells, luminescence, dose response (AID 1990); type: functional, cell-based
[9] = Luminescence Cell-Based Dose Response HTS to Identify Inhibitors of 5'UTR Stem-Loop Driven Prion Protein mRNA Translation in H4 Neuroglioblastoma Cells. [Related pubchem assays: 1827 (Project Summary), 1813 (Primary HTS)]; type: functional
[10] = target: T1, Heat shock factor protein 1 (Mus musculus, UniProt P38532); assay: enhancement of HSF1-driven luciferase signal – cell-based, NIH3T3, luminescence, dose retest, confirmation (AID 435004); type: functional;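 also: stress induced by proteasome inhibitor MG132 added 30 min after compound; luciferase reporter driven by HSF1 response element in NIH3T3 cells; actives raise luminescence as potentiators of the MG132 stress response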
T1 sequence (P38532 whole entry): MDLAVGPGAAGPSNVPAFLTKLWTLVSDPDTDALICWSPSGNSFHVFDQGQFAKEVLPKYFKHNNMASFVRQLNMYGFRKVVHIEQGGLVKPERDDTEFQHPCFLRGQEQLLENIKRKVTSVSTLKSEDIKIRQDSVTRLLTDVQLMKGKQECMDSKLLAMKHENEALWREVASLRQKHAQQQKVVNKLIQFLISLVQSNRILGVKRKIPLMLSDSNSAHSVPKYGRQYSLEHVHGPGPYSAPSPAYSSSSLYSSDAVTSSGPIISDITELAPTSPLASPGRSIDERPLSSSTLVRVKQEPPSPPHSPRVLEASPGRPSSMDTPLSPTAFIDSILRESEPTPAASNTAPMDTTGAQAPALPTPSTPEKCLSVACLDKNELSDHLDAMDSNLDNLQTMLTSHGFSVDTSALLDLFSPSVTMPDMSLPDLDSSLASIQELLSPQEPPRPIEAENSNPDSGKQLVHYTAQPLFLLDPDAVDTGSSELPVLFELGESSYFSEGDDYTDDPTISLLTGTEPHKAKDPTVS

[11] = NIH3T3 cell viability loss – ATP luminescence, mouse fibroblasts, counter-screen, dose response (AID 2010); type: functional, cell-based;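 also: cells exposed to compound for about 90 hours before reading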
[12] = Trypanosoma cruzi growth suppression in host cells – NIH3T3 host cells, beta-gal luminescence, confirmation (AID 2044); type: functional, cell-based;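 also: intracellular parasites grown in NIH/3T3 mouse fibroblasts as host cells; luminescent beta-galactosidase reporter signal from transgenic T. cruzi replicating inside host cells; inhibitors lower the luminescence signal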
[13] = NIH-3T3 fibroblast cytotoxicity, dose response, cytotoxicity control, cell-based, fluorescence, Alamar Blue, secondary assay (AID 2327); type: functional;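 also: NIH-3T3 mouse fibroblasts cultured with fluconazole at 8 µg/mL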
[14] = target: T2, Rac GTPase-activating protein 1 (Homo sapiens, UniProt Q9H0H5); assay: blockers of MgcRacGAP-driven Rac1 GTP hydrolysis – biochemical, ADP Hunter fluorescence, primary and confirmatory, confirmation (AID 624330); type: functional
T2 sequence (Q9H0H5 whole entry): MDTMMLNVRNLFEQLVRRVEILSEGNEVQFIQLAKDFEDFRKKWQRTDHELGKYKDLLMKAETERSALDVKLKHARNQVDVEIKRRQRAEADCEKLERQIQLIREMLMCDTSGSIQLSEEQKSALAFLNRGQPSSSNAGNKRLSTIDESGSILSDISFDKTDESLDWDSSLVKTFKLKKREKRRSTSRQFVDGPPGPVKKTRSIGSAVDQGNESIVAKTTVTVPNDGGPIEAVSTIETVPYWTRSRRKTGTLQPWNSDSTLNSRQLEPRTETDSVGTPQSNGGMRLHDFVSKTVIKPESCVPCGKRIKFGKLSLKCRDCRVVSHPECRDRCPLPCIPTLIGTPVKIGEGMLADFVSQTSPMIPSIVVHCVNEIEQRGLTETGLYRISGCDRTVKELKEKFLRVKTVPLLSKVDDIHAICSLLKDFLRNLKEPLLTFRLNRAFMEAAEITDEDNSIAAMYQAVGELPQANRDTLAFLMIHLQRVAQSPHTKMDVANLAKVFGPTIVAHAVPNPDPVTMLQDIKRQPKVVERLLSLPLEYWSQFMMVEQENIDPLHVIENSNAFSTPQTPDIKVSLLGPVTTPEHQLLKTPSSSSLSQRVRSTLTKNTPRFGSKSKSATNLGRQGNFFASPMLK

[15] = fluconazole-exposed Candida albicans growth modulators – fluorescence, retest, confirmation (AID 2467); type: functional, cell-based
cells = type: functional
[16] = target: T3, Corticotropin-releasing factor receptor 2/Corticotropin-releasing factor-binding protein (Homo sapiens, UniProt P24387+Q13324); assay: Dose Response confirmation of uHTS hits for small molecule antagonists of the CRF-binding protein and CRF-R2 receptor complex.; type: functional; settings: read-out: IC50_Mean
T3 sequence (Q13324 whole entry): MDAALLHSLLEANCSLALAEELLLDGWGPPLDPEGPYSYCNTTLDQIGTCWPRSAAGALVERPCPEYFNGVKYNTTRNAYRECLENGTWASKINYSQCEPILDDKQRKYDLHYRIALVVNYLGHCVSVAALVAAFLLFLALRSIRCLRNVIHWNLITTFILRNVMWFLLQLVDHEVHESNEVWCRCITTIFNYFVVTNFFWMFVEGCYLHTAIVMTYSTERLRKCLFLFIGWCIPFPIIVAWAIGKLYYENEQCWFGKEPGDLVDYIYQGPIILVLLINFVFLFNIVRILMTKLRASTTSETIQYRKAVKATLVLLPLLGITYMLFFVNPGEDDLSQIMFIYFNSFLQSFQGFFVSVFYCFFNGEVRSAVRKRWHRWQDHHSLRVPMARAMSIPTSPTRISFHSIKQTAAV
T3 sequence (P24387 whole entry): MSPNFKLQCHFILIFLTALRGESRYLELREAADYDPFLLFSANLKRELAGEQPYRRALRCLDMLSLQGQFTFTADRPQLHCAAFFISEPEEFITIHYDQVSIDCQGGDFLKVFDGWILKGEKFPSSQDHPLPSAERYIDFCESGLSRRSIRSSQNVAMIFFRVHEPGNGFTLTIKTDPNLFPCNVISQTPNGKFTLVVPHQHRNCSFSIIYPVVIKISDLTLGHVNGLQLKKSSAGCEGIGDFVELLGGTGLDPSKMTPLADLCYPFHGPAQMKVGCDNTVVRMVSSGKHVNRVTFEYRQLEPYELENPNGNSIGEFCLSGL

[17] = target: T3, Corticotropin-releasing factor receptor 2/Corticotropin-releasing factor-binding protein; assay: activators of CRF receptor 2 with binding protein – uHTS hits, confirmation (AID 602473); type: functional; settings: read-out: EC50_Mean

## CC(C)=CCC/C(C)=C/CC(C)(C)CNCCN1CCNCC1
[1]
  EC50: 5.89 µM (active)
H4
  EC50: > 120 µM (not active)
[2]
  EC50: > 120 µM (not active)
[3]
  EC50: > 120 µM (not active)
[4]
  EC50: 6.28 µM (active)

## O=[N+]([O-])c1ccc(COc2ccc(-c3[nH]ncc3-c3ccc(Cl)cc3)c(O)c2)cc1
[5]
  AC50: 4.02 µM (active)
[6]
  CC50: > 40 µM (active)

## CCOc1ccc(Nc2nc(Cc3nnc(SCC(=O)c4ccc(C)c(C)c4)o3)cs2)cc1
INS1
  AC50: 10.4 µM (active)

## CCC1(CC)NC(=O)N(CC(=O)N2N=C(c3ccc(Cl)cc3)CC2c2ccco2)C1=O (stereo not drawn)
[7]
  EC50: > 120 µM (not active)
[8]
  EC50: > 120 µM (not active)
[9]
  EC50: > 120 µM (not active)

## O=C(NN=C1c2ccccc2-c2ccccc21)c1cccc(Br)c1
[1]
  EC50: 4 µM (active)
[6]
  CC50: 15.1 µM (active)
[4]
  EC50: 4.02 µM (active)

## Cc1ccc(S(=O)(=O)N(CC(=O)NCc2ccco2)Cc2ccc(F)cc2)cc1
[10]
  EC50: > 260 µM (inactive)

## O=C(/C=C/c1ccncc1)c1ccc(NC(=O)c2ccccc2F)cc1
[1]
  EC50: 0.813 µM (active)
[5]
  AC50: 5.5 µM (active)
[4]
  EC50: 1.12 µM (active)

## CC1(C)Cc2c(c(N3CCOCC3)nc3sc4c(NCc5ccccc5)nnnc4c23)CS1
[7]
  EC50: 10.6 µM (active)
[11]
  EC50: > 60 µM (not active)
[8]
  EC50: 25 µM (active)
[9]
  EC50: 20.8 µM (active)
[12]
  EC50: 1.13 µM (active)

## Cc1ccc(C(=O)c2cc(C)sc2NC(=O)CN2CCN(C(=O)c3ccco3)CC2)cc1
[6]
  CC50: 23.4 µM (active)

## Nc1ccc(N2CCN(c3cccc(Cl)c3)CC2)cc1
[13]
  EC50: > 150 µM (inactive)
[14]
  IC50: 21 µM (active)
[15]
  EC50: > 38 µM (not active)

## Cc1ccc2c(CN3CCN(S(=O)(=O)/C=C/c4ccccc4)CC3)cc(=O)oc2c1
[10]
  EC50: > 260 µM (inactive)

## COCCCNc1nc2nonc2nc1N1CCN(Cc2cccc(C)c2)CC1
[10]
  EC50: > 260 µM (inactive)

## CCN1CCN(CCCNC(=O)c2ccc(/C=C3/Oc4ccccc4N(Cc4cccc(C)c4)C3=O)cc2)CC1
[7]
  EC50: 13.9 µM (active)
[8]
  EC50: > 120 µM (not active)
[9]
  EC50: > 120 µM (not active)
[6]
  CC50: 5.99 µM (active)

## O=[N+]([O-])c1ccc(S(=O)(=O)N2CCSC2c2ccco2)cc1 (stereo not drawn)
[10]
  EC50: > 260 µM (inactive)

## COc1ccc(C2c3c(oc4ccccc4c3=O)C(=O)N2c2ccccn2)cc1OC (stereo not drawn)
[1]
  EC50: 20.7 µM (active)
[4]
  EC50: 17.2 µM (active)

## CC(=O)Nc1ccc(OC(=O)c2ccc(Br)c([N+](=O)[O-])c2)cc1
[14]
  IC50: 36.4 µM (active)
cells
  IC50: 10.1 µM (active)

## Cc1ccc(CS(=O)(=O)Cc2ccc(C(=O)NC3CCCCCC3)o2)cc1
[7]
  EC50: 22.5 µM (active)
[8]
  EC50: 24.3 µM (active)
[9]
  EC50: > 120 µM (not active)

## c1ccc(COc2ccccc2CNC2CCCC2)cc1
[10]
  EC50: > 260 µM (inactive)

## Cc1cccc(N/N=C/c2ccccc2O)c1
[5]
  AC50: 6.21 µM (active)

## CCOc1ccc(/C=N/NC(=O)C(C)N(c2ccc(OC)cc2)S(C)(=O)=O)cc1 (stereo not drawn)
[10]
  EC50: > 260 µM (inactive)

## O=C(Nc1ccccc1O)C(c1ccccc1)c1ccccc1
INS1
  AC50: 2.92 µM (active)

## Cc1cc(OCCCCCNCCO)cc(C)c1Cl
[1]
  EC50: 17.6 µM (active)
[4]
  EC50: 17.8 µM (active)

## S=c1[nH]cc(-c2ccccc2)n1-c1ccccc1Cl
[10]
  EC50: > 260 µM (inactive)

## CC(OC(=O)c1oc2ccccc2c1COc1ccccc1)C(N)=O (stereo not drawn)
[7]
  EC50: 26.1 µM (active)
[13]
  EC50: 19.8 µM (inconclusive)
[15]
  EC50: > 38 µM (not active)
[8]
  EC50: 26.7 µM (active)
[9]
  EC50: > 120 µM (not active)

## COc1ccc(CSc2nc(N3CCOCC3)c3c(c2C#N)CC(C)(C)OC3)cc1
[7]
  EC50: > 120 µM (not active)
[11]
  EC50: > 60 µM (not active)
[8]
  EC50: 18.5 µM (active)
[9]
  EC50: > 120 µM (not active)
[12]
  EC50: 2.52 µM (active)

## Cc1ccc(-n2nc(-c3ccco3)cc2C(=O)NCc2cccnc2)cc1
[7]
  EC50: > 120 µM (not active)
[8]
  EC50: > 120 µM (not active)
[9]
  EC50: 38.1 µM (active)

## N=C(NOC(=O)c1cccc(Cn2cc(C(F)(F)F)ccc2=O)c1)c1ccccc1
INS1
  AC50: 7.96 µM (active)

## CCN1CCN(c2ccc(NC(=O)CCc3c(C)nc4c(-c5ccc(F)cc5)c(C)nn4c3C)cc2)CC1
[11]
  EC50: 32.4 µM (active)
[5]
  AC50: 2.15 µM (active)
[12]
  EC50: 1.48 µM (active)

## CCn1c(C(=O)O)c(CC(=O)Nc2cccc(C(F)(F)F)c2)c2ccccc21
[5]
  AC50: 15.3 µM (active)

## Cc1c(Cl)ccc2c1NC(=O)C21NC(CCC(N)=O)[C@H]2C(=O)N(c3ccc(Cl)cc3)C(=O)[C@H]21 (stereo partly drawn)
[10]
  EC50: > 260 µM (inactive)
[16]
  IC50: > 47.1 µM (inactive)
[17]
  EC50: > 53 µM (inactive)

## O=C(Nc1cccc(Cl)c1)c1cccc(Oc2ccc([N+](=O)[O-])cc2Cl)c1
[1]
  EC50: 17.1 µM (active)
[4]
  EC50: 16.1 µM (active)

## Cc1oc(-c2ccccc2F)nc1CS(=O)(=O)CC(=O)NCCCN1CCN(C)CC1
[10]
  EC50: > 260 µM (inactive)

## COc1cc(C=NNC(=O)c2ccccc2-n2cccc2)ccc1O
[14]
  IC50: 32.7 µM (active)
